Assay results taken from patent publication US20220009920A1 (GB005, Inc., priority 2020, published 2022).

Legend:
Experiment in all cases: Large panel kinase profiling
Assay type in all cases: biochemical
Settings in all cases: 1 μM test article, 1 mM ATP
[1] = molecular target: T1, CSNK1G1/CK1G1 (Homo sapiens, UniProt Q9HCP0)
T1 construct: AssayQuant Technologies, Inc. (service laboratory)
Outline: (§1)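 At 30° C., kinases turned over a CSox-Sensor peptide substrate with 1 mM ATP while 1 μM test article was present. Progress was followed by kinetic fluorescence readings.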

[2] = molecular target: T2, FLT3 (Homo sapiens, UniProt P36888)
T2 construct: AssayQuant Technologies, Inc. (service provider)
T2 sequence (P36888 27-993): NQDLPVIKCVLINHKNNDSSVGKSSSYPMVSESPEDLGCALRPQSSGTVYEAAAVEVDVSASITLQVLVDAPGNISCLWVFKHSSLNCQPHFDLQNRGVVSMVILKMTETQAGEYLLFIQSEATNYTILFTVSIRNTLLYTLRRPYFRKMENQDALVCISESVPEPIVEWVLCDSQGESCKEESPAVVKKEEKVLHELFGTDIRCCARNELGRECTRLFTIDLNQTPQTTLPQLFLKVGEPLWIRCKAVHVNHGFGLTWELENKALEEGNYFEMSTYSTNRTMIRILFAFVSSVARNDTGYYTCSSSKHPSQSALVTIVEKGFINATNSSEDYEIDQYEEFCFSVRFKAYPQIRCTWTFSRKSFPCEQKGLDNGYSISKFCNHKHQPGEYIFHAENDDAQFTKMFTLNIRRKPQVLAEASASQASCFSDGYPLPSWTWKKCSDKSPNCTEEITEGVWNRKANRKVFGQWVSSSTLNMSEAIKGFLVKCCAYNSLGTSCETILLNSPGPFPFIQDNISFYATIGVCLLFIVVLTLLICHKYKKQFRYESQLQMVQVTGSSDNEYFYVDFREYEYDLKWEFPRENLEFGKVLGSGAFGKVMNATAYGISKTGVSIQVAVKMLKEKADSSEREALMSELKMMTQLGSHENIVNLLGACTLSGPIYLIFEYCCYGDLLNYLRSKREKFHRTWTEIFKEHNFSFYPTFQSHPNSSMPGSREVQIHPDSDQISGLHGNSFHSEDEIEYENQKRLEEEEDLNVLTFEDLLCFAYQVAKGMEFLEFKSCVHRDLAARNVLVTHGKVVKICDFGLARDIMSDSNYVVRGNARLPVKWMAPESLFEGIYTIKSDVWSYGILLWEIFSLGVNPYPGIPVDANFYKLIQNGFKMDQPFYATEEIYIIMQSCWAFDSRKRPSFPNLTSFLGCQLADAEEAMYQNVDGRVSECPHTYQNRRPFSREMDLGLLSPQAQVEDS
Outline: as §1

[3] = molecular target: T3, FLT4 (Homo sapiens, UniProt P35916)
T3 construct: AssayQuant Technologies, Inc. (service provider)
T3 sequence (P35916 25-1363, species assumed): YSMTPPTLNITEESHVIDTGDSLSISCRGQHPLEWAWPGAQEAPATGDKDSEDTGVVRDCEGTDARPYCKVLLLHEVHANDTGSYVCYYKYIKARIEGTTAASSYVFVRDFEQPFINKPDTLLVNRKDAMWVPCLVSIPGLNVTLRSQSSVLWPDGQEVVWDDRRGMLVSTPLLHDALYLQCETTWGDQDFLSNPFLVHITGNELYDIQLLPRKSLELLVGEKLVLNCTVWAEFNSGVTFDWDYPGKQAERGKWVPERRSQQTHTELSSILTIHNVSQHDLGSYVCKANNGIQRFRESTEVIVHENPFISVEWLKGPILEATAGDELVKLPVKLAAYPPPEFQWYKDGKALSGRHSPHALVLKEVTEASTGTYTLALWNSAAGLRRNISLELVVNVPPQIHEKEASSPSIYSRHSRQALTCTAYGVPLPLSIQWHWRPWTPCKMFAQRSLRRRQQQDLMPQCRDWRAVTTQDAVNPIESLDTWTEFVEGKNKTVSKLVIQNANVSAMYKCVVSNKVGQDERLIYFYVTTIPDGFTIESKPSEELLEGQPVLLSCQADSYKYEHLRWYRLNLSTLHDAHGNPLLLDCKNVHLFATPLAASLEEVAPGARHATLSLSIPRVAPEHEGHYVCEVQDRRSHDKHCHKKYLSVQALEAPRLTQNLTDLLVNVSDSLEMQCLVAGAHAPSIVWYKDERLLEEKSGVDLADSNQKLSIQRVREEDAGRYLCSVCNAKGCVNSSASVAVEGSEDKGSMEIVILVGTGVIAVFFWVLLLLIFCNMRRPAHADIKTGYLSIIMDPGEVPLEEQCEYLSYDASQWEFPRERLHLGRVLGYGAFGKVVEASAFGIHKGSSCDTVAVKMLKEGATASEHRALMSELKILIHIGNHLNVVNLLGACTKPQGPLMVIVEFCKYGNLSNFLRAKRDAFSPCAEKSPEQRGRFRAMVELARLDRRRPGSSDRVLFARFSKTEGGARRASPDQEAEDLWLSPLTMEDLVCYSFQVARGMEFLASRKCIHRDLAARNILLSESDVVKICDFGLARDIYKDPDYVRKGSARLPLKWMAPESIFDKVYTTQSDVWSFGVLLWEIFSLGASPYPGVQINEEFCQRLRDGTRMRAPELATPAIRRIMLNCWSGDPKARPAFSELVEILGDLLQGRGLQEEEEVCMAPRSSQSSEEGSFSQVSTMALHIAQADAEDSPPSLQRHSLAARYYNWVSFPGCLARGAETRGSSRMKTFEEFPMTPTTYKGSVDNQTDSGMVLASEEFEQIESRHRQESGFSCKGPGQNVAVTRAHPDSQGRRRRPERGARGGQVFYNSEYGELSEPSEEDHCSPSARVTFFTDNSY
Outline: as §1

[4] = molecular target: T4, NEK6 (Homo sapiens, UniProt Q9HC98)
T4 construct: AssayQuant Technologies, Inc. (assay service)
T4 sequence (Q9HC98 whole entry, species assumed): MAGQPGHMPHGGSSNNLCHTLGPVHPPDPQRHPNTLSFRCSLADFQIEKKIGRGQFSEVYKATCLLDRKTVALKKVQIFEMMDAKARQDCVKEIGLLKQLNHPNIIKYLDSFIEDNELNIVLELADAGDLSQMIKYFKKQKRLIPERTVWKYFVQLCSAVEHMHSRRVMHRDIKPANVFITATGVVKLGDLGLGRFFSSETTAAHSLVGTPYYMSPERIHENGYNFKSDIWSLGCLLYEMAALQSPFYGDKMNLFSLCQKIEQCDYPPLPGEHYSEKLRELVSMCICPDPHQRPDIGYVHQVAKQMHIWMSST
Outline: as §1

[5] = molecular target: T5, PHKG2 (Homo sapiens, UniProt P15735)
T5 sequence (P15735 1-406): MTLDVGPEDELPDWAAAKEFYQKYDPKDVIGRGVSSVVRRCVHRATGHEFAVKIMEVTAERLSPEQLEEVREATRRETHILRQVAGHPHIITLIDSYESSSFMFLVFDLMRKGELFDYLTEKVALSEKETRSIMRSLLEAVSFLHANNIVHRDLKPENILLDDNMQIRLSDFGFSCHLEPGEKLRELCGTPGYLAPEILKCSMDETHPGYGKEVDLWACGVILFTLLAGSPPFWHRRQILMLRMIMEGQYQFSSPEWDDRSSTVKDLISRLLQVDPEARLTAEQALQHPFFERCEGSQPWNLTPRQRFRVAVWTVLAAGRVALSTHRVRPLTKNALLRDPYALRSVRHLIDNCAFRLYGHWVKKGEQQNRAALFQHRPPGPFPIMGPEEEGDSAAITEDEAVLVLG
Outline: as §1

[6] = molecular target: PRKAA1/AMPK111 (Homo sapiens, UniProt Q13131)
PRKAA1/AMPK111, sequence (Q13131 whole entry, species assumed): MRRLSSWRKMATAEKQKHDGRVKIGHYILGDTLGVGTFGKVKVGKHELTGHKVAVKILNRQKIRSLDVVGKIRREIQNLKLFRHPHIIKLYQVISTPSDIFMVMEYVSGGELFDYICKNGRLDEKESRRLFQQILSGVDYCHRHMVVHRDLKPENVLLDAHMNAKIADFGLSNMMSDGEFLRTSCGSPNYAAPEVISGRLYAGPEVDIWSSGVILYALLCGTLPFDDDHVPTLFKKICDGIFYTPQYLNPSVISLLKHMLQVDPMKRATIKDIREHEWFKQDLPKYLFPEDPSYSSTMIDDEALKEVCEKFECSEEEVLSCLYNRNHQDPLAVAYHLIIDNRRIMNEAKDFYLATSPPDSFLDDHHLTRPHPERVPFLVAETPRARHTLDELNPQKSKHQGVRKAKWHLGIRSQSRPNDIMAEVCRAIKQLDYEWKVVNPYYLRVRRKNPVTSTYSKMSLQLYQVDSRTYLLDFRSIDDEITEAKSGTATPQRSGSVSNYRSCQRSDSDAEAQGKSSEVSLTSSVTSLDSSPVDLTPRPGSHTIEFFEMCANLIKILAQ
PRKAA1/AMPK111, sequence (Q9Y478 whole entry partner, species assumed): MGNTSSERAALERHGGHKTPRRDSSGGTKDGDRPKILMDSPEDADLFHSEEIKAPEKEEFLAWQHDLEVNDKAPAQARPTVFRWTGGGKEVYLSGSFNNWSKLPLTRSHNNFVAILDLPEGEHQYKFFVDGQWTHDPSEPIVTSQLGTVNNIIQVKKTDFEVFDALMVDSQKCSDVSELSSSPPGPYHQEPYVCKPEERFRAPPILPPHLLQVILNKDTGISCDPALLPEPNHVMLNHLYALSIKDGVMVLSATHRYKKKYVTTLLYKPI
PRKAA1/AMPK111, sequence (P54619 whole entry partner, species assumed): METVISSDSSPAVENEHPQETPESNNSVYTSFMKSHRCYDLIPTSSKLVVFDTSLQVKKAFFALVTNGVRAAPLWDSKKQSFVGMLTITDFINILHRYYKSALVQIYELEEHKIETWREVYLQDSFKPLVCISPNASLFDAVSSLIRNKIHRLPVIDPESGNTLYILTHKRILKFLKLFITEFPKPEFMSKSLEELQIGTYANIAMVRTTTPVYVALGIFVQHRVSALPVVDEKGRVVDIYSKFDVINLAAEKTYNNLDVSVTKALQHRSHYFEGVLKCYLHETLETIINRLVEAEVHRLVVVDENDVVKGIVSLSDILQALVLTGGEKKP
Outline: as §1

[7] = molecular target: PRKCB2/PKCB2 (Homo sapiens, UniProt P05771)
PRKCB2/PKCB2, sequence (P05771 1-673 isoform P05771-2): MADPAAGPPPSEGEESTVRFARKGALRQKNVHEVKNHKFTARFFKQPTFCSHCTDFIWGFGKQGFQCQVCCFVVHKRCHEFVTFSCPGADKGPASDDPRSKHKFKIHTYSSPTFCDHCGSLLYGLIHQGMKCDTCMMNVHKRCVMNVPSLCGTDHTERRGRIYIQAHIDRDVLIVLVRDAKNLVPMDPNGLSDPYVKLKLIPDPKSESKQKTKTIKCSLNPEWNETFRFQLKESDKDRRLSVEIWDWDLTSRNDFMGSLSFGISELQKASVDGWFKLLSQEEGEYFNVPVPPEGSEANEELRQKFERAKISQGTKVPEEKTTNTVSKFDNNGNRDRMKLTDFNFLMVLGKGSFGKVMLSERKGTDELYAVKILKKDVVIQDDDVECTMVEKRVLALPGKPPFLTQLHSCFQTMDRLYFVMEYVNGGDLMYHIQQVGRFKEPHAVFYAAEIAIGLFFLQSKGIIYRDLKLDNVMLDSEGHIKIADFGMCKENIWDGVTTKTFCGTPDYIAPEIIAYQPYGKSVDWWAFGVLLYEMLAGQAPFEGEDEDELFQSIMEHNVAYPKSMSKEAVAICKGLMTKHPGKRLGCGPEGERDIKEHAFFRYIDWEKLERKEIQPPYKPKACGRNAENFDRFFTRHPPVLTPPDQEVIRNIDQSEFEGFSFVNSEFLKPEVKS
Outline: as §1

[8] = molecular target: T6, STK10/LOK (Homo sapiens, UniProt O94804)
T6 construct: AssayQuant Technologies, Inc. (contract assay)
Outline: as §1

[9] = molecular target: T7, STK17A/DRAK1 (Homo sapiens, UniProt Q9UEE5)
T7 construct: AssayQuant Technologies, Inc. (contract assay)
T7 sequence (Q9UEE5 1-414): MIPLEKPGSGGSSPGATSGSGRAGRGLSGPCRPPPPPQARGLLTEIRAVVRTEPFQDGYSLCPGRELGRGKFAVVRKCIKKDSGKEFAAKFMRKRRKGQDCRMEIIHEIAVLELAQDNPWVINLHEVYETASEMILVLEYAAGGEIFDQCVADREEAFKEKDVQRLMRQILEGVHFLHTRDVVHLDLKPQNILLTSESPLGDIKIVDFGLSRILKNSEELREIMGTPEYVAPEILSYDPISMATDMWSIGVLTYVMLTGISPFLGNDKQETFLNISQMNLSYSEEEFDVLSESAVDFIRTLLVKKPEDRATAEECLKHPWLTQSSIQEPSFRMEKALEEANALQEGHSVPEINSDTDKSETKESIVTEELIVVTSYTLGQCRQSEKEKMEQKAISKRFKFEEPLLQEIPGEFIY
Outline: as §1

[10] = molecular target: T8, TNIK (Homo sapiens, UniProt Q9UKE5)
T8 construct: AssayQuant Technologies, Inc. (contract laboratory that ran the panel)
T8 sequence (Q9UKE5 whole entry, species assumed): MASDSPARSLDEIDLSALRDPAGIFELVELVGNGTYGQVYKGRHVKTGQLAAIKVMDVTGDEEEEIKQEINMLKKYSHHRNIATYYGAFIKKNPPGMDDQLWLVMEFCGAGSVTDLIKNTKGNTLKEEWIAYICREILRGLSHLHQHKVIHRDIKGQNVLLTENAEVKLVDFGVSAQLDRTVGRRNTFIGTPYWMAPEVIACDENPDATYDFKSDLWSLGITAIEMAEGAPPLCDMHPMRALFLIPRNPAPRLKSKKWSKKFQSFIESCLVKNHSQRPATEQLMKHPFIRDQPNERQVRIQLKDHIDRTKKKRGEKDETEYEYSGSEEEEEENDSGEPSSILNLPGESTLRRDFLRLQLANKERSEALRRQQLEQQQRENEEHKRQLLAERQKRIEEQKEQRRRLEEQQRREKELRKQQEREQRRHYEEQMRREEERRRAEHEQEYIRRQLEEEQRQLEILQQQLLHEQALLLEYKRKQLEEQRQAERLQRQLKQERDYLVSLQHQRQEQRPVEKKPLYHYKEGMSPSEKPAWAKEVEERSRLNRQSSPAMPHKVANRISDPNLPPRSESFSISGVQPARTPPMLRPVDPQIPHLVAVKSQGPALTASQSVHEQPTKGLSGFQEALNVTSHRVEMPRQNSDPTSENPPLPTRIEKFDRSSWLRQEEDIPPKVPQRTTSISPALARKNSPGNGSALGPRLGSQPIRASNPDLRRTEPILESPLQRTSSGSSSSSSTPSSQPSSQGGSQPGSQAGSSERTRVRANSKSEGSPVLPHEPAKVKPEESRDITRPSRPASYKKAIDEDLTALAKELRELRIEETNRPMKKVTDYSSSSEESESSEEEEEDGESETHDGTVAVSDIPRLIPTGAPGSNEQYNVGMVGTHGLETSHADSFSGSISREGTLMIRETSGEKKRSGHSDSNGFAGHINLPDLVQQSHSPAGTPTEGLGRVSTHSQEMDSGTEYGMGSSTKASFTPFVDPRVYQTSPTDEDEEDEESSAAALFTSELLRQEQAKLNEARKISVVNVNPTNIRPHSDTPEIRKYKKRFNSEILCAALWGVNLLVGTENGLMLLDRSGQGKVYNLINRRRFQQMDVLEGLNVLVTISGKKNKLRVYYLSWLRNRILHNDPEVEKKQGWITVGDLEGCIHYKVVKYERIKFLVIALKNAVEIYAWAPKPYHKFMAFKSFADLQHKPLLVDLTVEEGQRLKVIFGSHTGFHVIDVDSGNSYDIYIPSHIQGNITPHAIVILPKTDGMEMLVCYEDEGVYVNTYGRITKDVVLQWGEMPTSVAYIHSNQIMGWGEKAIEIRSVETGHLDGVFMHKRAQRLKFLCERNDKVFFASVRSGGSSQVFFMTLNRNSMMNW
Outline: as §1

Row | Structure (SMILES) | inhibition at 1 µM [1] [%] | inhibition at 1 µM [2] [%] | inhibition at 1 µM [3] [%] | inhibition at 1 µM [4] [%] | inhibition at 1 µM [5] [%] | inhibition at 1 µM [6] [%] | inhibition at 1 µM [7] [%] | inhibition at 1 µM [8] [%] | inhibition at 1 µM [9] [%] | inhibition at 1 µM [10] [%]
1 | C=CC(=O)N1CCCC(c2c(F)cc(C(N)=O)c3[nH]c4c(c23)CCCCC4)C1 (single isomer, unassigned) [Compound 5-6] | 17.2 | 2.2 | 19.7 | -13.5 | 10.1 | -13.5 | -32.3 | 3.1 | 22.4 | 9.9
2 | C=CC(=O)N1CCC[C@@H](c2c(F)cc(C(N)=O)c3[nH]c4c(c23)CCC4)C1 [Compound 10-2, (S)-8-(1-acryloylpiperidin-3-yl)-7-fluoro-1,2,3,4-tetrahydrocyclo-penta[b]indole-5-carboxamide] | -2.8 | -4.6 | 1.8 | -13.6 | 75 | 2.2 | -28.2 | -8.7 | -28 | -22.9
3 | C=CC(=O)N1CCC[C@@H](c2c(F)cc(C(N)=O)c3[nH]c4c(c23)CC2(CC4)CC2)C1 [Compound 6-2, (S)-5-(1-acryloylpiperidin-3-yl)-6-fluoro-1,2,4,9-tetrahydrospiro[carbazole-3,1′-cyclopropane]-8-carboxamide] | 14 | -9.4 | 20.4 | -5.8 | 64.5 | 13.2 | -9.4 | 12.2 | -33.9 | -29.3
